Test results as given in patent US20050260219A1, “Carboxypeptidases B from anopheles gambiae. compositions comprising them, vaccine applications and use as therapeutical targets” (INSTITUT PASTEUR, priority 2004, published 2005).
Residues, ends and D or L forms follow the SMILES beside them. *: point of attachment. Bz = O=C(c1ccccc1)*

Experiments:
recombinant CPBAg1 [1] = molecular target: T1, recombinant CPBAg1 (Anopheles gambiae, UniProt Q702G3); test: Effect of inhibitors on CPBAg1 activity (Hip-Arg as substrate); type: biochemical; settings: for Activity (%): relative to control without inhibitor
T1 sequence (Q702G3 20-423): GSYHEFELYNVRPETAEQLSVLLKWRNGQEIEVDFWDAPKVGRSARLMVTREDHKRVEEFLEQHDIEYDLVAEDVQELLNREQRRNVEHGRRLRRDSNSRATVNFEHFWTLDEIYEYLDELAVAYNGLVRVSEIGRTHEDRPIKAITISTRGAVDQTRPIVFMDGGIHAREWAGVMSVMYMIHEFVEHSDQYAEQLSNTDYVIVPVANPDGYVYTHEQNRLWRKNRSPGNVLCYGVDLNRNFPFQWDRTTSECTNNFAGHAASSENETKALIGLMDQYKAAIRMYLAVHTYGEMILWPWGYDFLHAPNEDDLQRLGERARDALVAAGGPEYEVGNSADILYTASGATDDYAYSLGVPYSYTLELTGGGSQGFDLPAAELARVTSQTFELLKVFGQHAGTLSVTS
Protocol: (§1) Carboxypeptidase activity was determined using the synthetic di-peptide substrates Hippuryl-Arginine (Hip-Arg), Hippuryl-Lysine (Hip-Lys) as carboxypeptidase B substrates and Hippuryl-Phenylalanine (Hip-Phe) as carboxypeptidase A substrate. All reagents were purchased from Sigma. Activities were assayed in 20 μl E buffer (100 mM NaCl/50 mM Hepes/100 μM ZnCl2 pH 7.2) containing 1 mM Hip-Arg, Hip-Lys or Hip-Phe. The reaction was initiated by adding an equal volume of His-tagged CPBAg1 (5 ng/μl in E buffer), incubated at 25° C. for 10-40 min, and stopped by the addition of 20 μl Ninhydrin reagent (Sigma, Lyon, France). The rate of the reaction was measured by estimating the amount of released amino acids using the ninhydrin procedure (60). One unit of enzyme activity was defined as μmol of amino acids released/min.
Inhibitory effects of the chelating agent 1,10-phenantroline (Sigma, Lyon, France), and of the arginine analogue GEMSA (Guanidinoethylmercaptosuccinic acid, Fluka) on CPBAg1 activity were assayed as follows: different concentrations ([…]-1 mM) of inhibitors were preincubated at 25° C. for 30 min with the recombinant protein in E buffer before addition of Hip-Arg. Activity was measured as described above and was expressed as the percentage of activity relative to controls performed in absence of inhibitor.
Accordingly, CPBAg1 activity was inhibited by the active site-directed inhibitor GEMSA, which is an arginine analogue (Table 2). Activity of the purified recombinant CPBAg1 produced in the baculovirus was assayed after incubation with the zinc-carboxypeptidase inhibitor 1,10-phenantroline and the active site-directed inhibitor GEMSA, using Hyp-Arg as substrate. 100% activity corresponds to 1.1 and 0.8 unit/mg for 1,10-phenanatroline and GEMSA experiments, respectively.

recombinant CPBAg1 [2] = molecular target: T1, recombinant CPBAg1; test: Carboxypeptidase activity assay on recombinant CPBAg1 with di-peptide substrates; type: biochemical; settings: for Enzyme activity: purified recombinant CPBAg1 from baculovirus, 1 mM substrate, 1 unit cleaves 1 μmol product/min
Protocol: as §1
Estimation of Km and kcat was carried out after assays over a 500-fold range of Hip-Arg concentration (0.02-10 mM). Each concentration was assayed in triplicate. The kinetic parameters were derived from iterative non-linear least square fits of the Michaelis-Menten equation using the experimental data (61). Confidence limits for the fitted values were determined by 100 Monte Carlo iterations using the experimental standard deviations on individual measurements.
Activity of the purified recombinant CPBAg1 produced in baculovirus was assayed against the carboxypeptidase B di-peptide substrates Hippuryl-Arginine (Hip-Arg) and Hippuryl-Lysine (Hip-Lys) and the carboxypeptidase A di-peptide substrate Hippuryl-Phenylalanine (Hip-Phe). 1 unit cleaves 1 μmol product/min.

[3] = system: P. falciparum development in An. gambiae; test: Effect of CPB substrates, free L-arginine and free L-lysine added to infected blood meal on P. falciparum development in An. gambiae; type: in vivo, Plasmodium falciparum; settings: day 7 post feeding; for % Infected mosquitoes (number of dissected mosquitoes): pooled infections; for Mean number of oocysts (range): per positive midgut
Protocol: Asymptomatic village people (Senegal) or schoolchildren aged ≦10 years old (Cameroon) were mass-screened to detect parasite carriers as previously described (12). All participants were volunteers and the consent of the children's parents was obtained. The experimental protocols were approved by the Cameroonian and the Senegalese National Ethics Committees. Infections and control experiments were performed with the blood from gametocyte carrier volunteers and with the blood from parasite-free donors. Venous blood (10 ml) was collected in a heparin coated and pre-warmed tube, centrifuged for 5 minutes, 5,000 rpm, at 37° C. and the serum of the patient immediatly replaced with a prewarmed AB serum collected from donors not living in a malaria endemic country. For each experiment, batches of 60 nulliparous female mosquitoes (5 days old) starved from sugar for 24 h were fed for 10 minutes, using the artificial membrane feeding technique (24). Fully engorged females were maintained at the insectarium until dissection. For each experiment a control batch of mosquitoes was used to determine the rate and intensity of infection by oocyst detection on day 7 post feeding. These experiments were performed with a control providing an infection rate close to or above 50%. As described below these basic procedures for infecting An. gambiae with P. falciparum were modified to answer specific issues.
Mosquito infections were performed with the blood from volunteers harboring a low gametocytaemia, as described above, except that 10 μl of L-arginine (Sigma), L-lysine (Sigma), Hippuryl-Lysine (Sigma) or Hippuryl-Arginine (Sigma) at 10, 1, 0.1 and 0.01 mM in TrisHCl 50 mM pH 7.2 were added to 500 μl of P. falciparum infected blood just before mosquito feeding. As a control 10 μl of TrisHCl 50 mM pH 7.2 was added to the P. falciparum infected blood. Triplicate experiments using the blood of three different gametocyte carriers were performed except for L-lysine where only two experiments could be performed. Rate and intensity of infection were scored on day 7 after blood feeding by detection of oocysts on the mosquito midgut wall.
For the data presented in Table 4 (below), An. gambiae were fed on P. falciparum infected blood supplemented with CPB substrates: Hippuryl-Arginine or Hippuryl-Lysine. Proportion of infected mosquitoes and oocyst counts per positive midgut were determined on day 7 post feeding. For each substrate and concentration tested, data from three independent infections were pooled. […] The infected blood harboured few gametocytes resulting in a low infection rate in the control and thereby allowing the detection of the effect of carboxypeptidase substrates.
For the data presented in Table 5 (below), An. gambiae were fed on P. falciparum infected blood supplemented with L-arginine or L-lysine at three different concentrations. Proportion of infected mosquitoes and oocyst counts per positive midgut were determined on day 7 post feeding. Data were pooled from three independent infections for L-arginine experiments, and from two independent infections for L-lysine experiments.

SMILES	Enzyme activity (recombinant CPBAg1 [2]) [unit/mg]	% Infected mosquitoes (number of dissected mosquitoes) ([3]; 100 μM)	Mean number of oocysts (range) ([3]; 100 μM)	% Infected mosquitoes (number of dissected mosquitoes) ([3]; 1 mM)	Mean number of oocysts (range) ([3]; 1 mM)	other results
c1cnc2c(c1)ccc1cccnc12 [1,10-phenantroline]	–	–	–	–	–	Activity (%) (recombinant CPBAg1 [1]; inhibitor 0.1 μM): 96 ± 2%; Activity (%) (recombinant CPBAg1 [1]; inhibitor 10 μM): 87 ± 8%; Activity (%) (recombinant CPBAg1 [1]; inhibitor 100 μM): 35 ± 5%; Activity (%) (recombinant CPBAg1 [1]; inhibitor 1000 μM): 24 ± 5%
N=C(N)NCCSC(CC(=O)O)C(=O)O (stereo not drawn) [GEMSA, Guanidinoethylmercaptosuccinic acid]	–	–	–	–	–	activity at 0.1 µM (recombinant CPBAg1 [1]): 96 ± 2%; activity at 10 µM (recombinant CPBAg1 [1]): 41%; activity at 100 µM (recombinant CPBAg1 [1]): 20 ± 2%; activity at 1000 µM (recombinant CPBAg1 [1]): 7 ± 11%
O=C(CNC(=O)c1ccccc1)N[C@@H](Cc1ccccc1)C(=O)O [Hip-Phe, Hippuryl-Phenylalanine] (Bz-Gly-Phe-OH)	0	–	–	–	–	–
N=C(N)NCCC[C@H](NC(=O)CNC(=O)c1ccccc1)C(=O)O [Hippuryl-Arginine] (Bz-Gly-Arg-OH)	0.83 ± 0.01	40.9 (88) %	2.1 (1-7)	28 (50) %	2.1 (1-8)	activity against Hip-Arg relative to Hip-Lys (recombinant CPBAg1 [2]; ratio of enzyme activities of Table 1): approximately 3.5 times; % Infected mosquitoes (number of dissected mosquitoes) ([3]; 10 μM): 26.3 (80) %; Mean number of oocysts (range) ([3]; 10 μM): 2.3 (1-10)
NCCCC[C@H](NC(=O)CNC(=O)c1ccccc1)C(=O)O [Hippuryl-Lysine] (Bz-Gly-Lys-OH)	0.24 ± 0.02	41.1 (90) %	2.4 (1-6)	46.7 (92) %	2.5 (1-12)	% Infected mosquitoes (number of dissected mosquitoes) ([3]; 10 mM): 23.8 (80) %; Mean number of oocysts (range) ([3]; 10 mM): 2.1 (1-6)
N=C(N)NCCC[C@H](N)C(=O)O [L-arginine]	–	38.4 (86) %	3.2 (1-13)	34.4 (64) %	5.3 (1-26)	% Infected mosquitoes (number of dissected mosquitoes) ([3]; 10 mM): 55.2 (58) %; Mean number of oocysts (range) ([3]; 10 mM): 5.2 (1-31)
NCCCC[C@H](N)C(=O)O [L-lysine]	–	42.1 (38) %	4.9 (1-15)	30.5 (36) %	8.3 (1-44)	% Infected mosquitoes (number of dissected mosquitoes) ([3]; 10 μM): 62.9 (35) %; Mean number of oocysts (range) ([3]; 10 μM): 8.2 (1-18)
